# Source: patent US20230119759A1, “PHARMACEUTICAL COMBINATION COMPRISING PYRIDINO[1,2-A]PYRIMIDINONE COMPOUND” (CHIA TAI TIANQING PHARMACEUTICAL GROUP CO., LTD., priority 2020, published 2023)
# Tested on: BT-474 xenograft tumor
# Experiment: Human breast cancer (BT-474) xenograft tumor model in nude mice
# Format: in vivo, BALB/c female nude mice
# Settings: for Mean tumor volume (day 28) / T/C / TGI: day 28; for Mean tumor volume (day 0): day 0 (start of treatment, baseline)
# Experimental: BALB/c female nude mice (provided by Shanghai Sippr-BK Lab. Animal Co., Ltd.), SPF-grade, weight 18-25 g, aged about 8 weeks (tumor-bearing). Human breast cancer BT-474 cells (ATCC) were cultured in Hybri-Care medium containing 10% fetal bovine serum, 100 U/mL penicillin and […] in vitro monolayer culture at 37° C./5% CO2. The cells were digested with trypsin-EDTA twice a week for passaging as per conventional practice. When cell confluence was 80%-90%, the cells were collected, counted, and inoculated. Estrogen tablets were implanted 3 days before cell inoculation, 0.2 mL of BT-474 cells (1×10^7) were subcutaneously inoculated on the right back of each mouse, and grouping and administration was initiated when the mean tumor volume reached 127.19 mm^3. The compound of formula I was dissolved in a vehicle: 0.01 mol/L HCl solution, 0.5% methylcellulose and deionized water were mixed well in a volume ratio of 20:30:100.
# The tumor volume was calculated using the following formula: V=0.5a×b^2, where a and b represent the long diameter and short diameter of the tumor, respectively. The percentage value of TIC (%) reflects the tumor growth inhibition rate, and where T and C represent the tumor weight (tumor volume) of the treatment groups and the control group, respectively, on a certain day.
# The tumor growth inhibition rate was calculated using the following formula: TGI (%)=[1−(Ti−T0)/(Vi−V0)]×100, where Ti is the mean tumor volume of a certain treatment group on a certain day, T0 is the mean tumor volume of the treatment group at the start of treatment, Vi is the mean tumor volume of the vehicle control group on a certain day (same day as Ti) and V0 is the mean tumor volume of the vehicle control group at the start of treatment. Tumor weights were measured at the end of treatment and percentage Tweight/Cweight was calculated, where Tweight and Cweight represent the tumor weights of the treatment and vehicle control groups, respectively.
# [1] = 1 mg/kg orally once daily for 28 days
# [2] = 2 mg/kg orally once daily for 28 days
# [3] = 4 mg/kg orally once daily for 28 days
smiles,measurement,setting,value
COc1ncc(-c2ccc3ncc(OCCN(C)C)c(=O)n3c2)cc1NS(=O)(=O)c1ccc(F)cc1Cl [Compound of formula I],Mean tumor volume (day 28),[1],223 ± 50 mm^3
same,T/C,[1],56.09%
same,TGI,[1],64.56%
same,Mean tumor volume (day 0),1 mg/kg orally once daily,127 ± 11 mm^3
same,Mean tumor volume (day 28),[2],159 ± 36 mm^3
same,T/C,[2],40.11%
same,TGI,[2],88.10%
same,Mean tumor volume (day 0),2 mg/kg orally once daily,127 ± 11 mm^3
same,Mean tumor volume (day 28),[3],145 ± 40 mm^3
same,T/C,[3],36.52%
same,TGI,[3],93.35%
same,Mean tumor volume (day 0),4 mg/kg orally once daily,127 ± 11 mm^3
same,anti-tumor efficacy (in words),"BT-474 xenograft tumor model, 1-4 mg/kg orally",significant anti-tumor efficacy
